Experimental data from US20190160084A1, “METHODS FOR THE TREATMENT OF CANCER USING MEGLUMINE” (Dynamis Pharmaceuticals, Inc., priority 2016, published 2019).

Experiments:
skin tumors = settings: DFMO given during the promotion phase; cited from earlier work
THP-1 cells = test: LPS-induced cytokine levels in media of THP-1 cells (Bio-Plex immunoassay); assay type: cell-based, human; settings: 25 ng LPS, 40 or 80 mM meglumine hydrochloride, 24 hours
Protocol: THP-1 cells (human acute monocytic leukemia) were grown in a 24-well polystyrene plate in 1 ml of RPMI media with 10% fetal bovine serum. Cells were treated with 25 ng of lipopolysaccharide (LPS) (Sigma) in the presence or absence of 40 or 80 mM meglumine hydrochloride. After 24 hours, the media was centrifuged to remove the cells and analyzed for cytokine content using a Bio-Plex® immunoassay (Bio-Rad). The LPS induced levels of IL-17, IL-8, MIP-1 alpha, MIP-1 beta, IL-9 and IP-10 were decreased in the presence of meglumine (FIG. 5).

[1] = system: skin tumors in DMBA-initiated K6/ODC transgenic mice; test: Skin tumor formation and growth in DMBA-initiated K6/ODC transgenic mice, meglumine in drinking water; assay type: in vivo
Protocol: K6/ODC transgenic mice are highly susceptible to developing skin tumors following a single treatment with a low subthreshold dose of the carcinogen DMBA. The effect of oral administration of meglumine in the drinking water was tested on the formation and growth of skin tumors in DMBA-initiated K6/ODC transgenic mice and their normal littermates. Four day old K6/ODC transgenic mice and their normal littermates were initiated with a single topical application of 300 nmol DMBA in 50 μl acetone.
(§1) Upon weaning, K6/ODC transgenic mice and their normal littermates were divided into two treatment groups where they received ad lib either tap water or water with 37.5 mM meglumine (Sigma Chemical Co.) in their drinking water. Meglumine-containing water was changed twice a week. […] Mice were monitored for tumor development. Tumor growth was assessed morphometrically using calipers, and tumor volumes were calculated according to the formula V (mm^3)=π/6×A×B^2 (A is larger diameter, B is the smaller diameter) (Buzzai et al.).

[2] = Tolerability of meglumine in the drinking water (water consumption, adverse effects); assay type: in vivo; settings: 37.5 mM meglumine in drinking water ad lib; K6/ODC transgenic mice and normal littermates
Protocol: as §1

[3] = K6/ODC transgenic mice, compared to control water, monitored 4 months

In the case of `NCCC[C@](N)(C(=O)O)C(F)F` [DFMO, α-difluoromethylornithine], the “development of skin tumors” value (skin tumors) is listed as “inhibits”.
In the case of `CNC[C@H](O)[C@@H](O)[C@H](O)[C@H](O)CO.Cl` [meglumine hydrochloride], the “LPS induced level of IL-8” value (THP-1 cells) is reported as “decreased”, the “LPS induced level of IL-9” value (THP-1 cells) is reported as “decreased” and the “LPS induced level of IL-17” value (THP-1 cells) is reported as “decreased”. For the same compound, the “LPS induced level of IP-10” value (THP-1 cells) was “decreased”, the “LPS induced level of MIP-1 alpha” value (THP-1 cells) was “decreased” and the “LPS induced level of MIP-1 beta” value (THP-1 cells) was “decreased”.
In the case of `CNC[C@H](O)[C@@H](O)[C@H](O)[C@H](O)CO` [meglumine, (2R,3R,4R,5S)-6-methylaminohexane-1,2,3,4,5-pentol], the “age at which all mice had skin tumors” value ([1]; K6/ODC transgenic mice (6/6), 37.5 mM meglumine in drinking water, control (5/5): 50 days) is reported as 73 days of age, the “age at which skin tumors first developed” value ([1]; K6/ODC transgenic mice, 37.5 mM meglumine in drinking water, control tap water: 45 days) is reported as 60 days of age and the “numbers of skin tumors” value ([1]; K6/ODC transgenic mice, at any given age, compared to control tap water, monitored 4 months) is reported as “fewer”. For the same compound, the “cumulative tumor burden (average total tumor volume per mouse)” value [1, 3] was “lower”, the tumor growth [1, 3] was “slowed” and the “skin tumor development in normal littermates” value ([1]; normal littermates n=10, with or without meglumine-supplemented water, single subthreshold dose of DMBA) was “no normal littermates”. The “adverse effects (weight loss, lethargy, ruffed fur, diarrhea, or general malaise)” value [2] was “nor did it have any adverse effects” and the consumption of water [2] was “did not affect”.
